Assay results from patent US20040023295A1, “Methods and systems for analyzing complex biological systems” (priority 2001, published 2004).

System: Saccharomyces cerevisiae wild type strain BY4743
Assay: Yeast azole drug experiment AF1: metabolite analysis (GC-MS, LC-MS)
Format: cell-based

C[C@@H]1[C@H](O)[C@@H](C)/C=C/C=C/C=C/C=C/C=C/C=C/C=C/[C@H](O[C@@H]2O[C@H](C)[C@@H](O)[C@H](N)[C@@H]2O)C[C@@H]2O[C@](O)(C[C@@H](O)C[C@@H](O)[C@H](O)CC[C@@H](O)C[C@@H](O)CC(=O)O[C@H]1C)C[C@H](O)[C@H]2C(=O)O [Amphoteracin B]
Fold Change urocanic acid (nLC): 0 | Fold Change xanthosine-DiH2O (nLC): 0 | Fold Change zeatin (nLC): 0 | Fold Change urocanic acid (pLC): 0 | Fold Change xanthosine (diH2O) (pLC): 0 | Fold Change zeatin (pLC): 0 | Fold Change of metabolite disaccaride2 (platform GC, p-Value 0.000388379): −0.9977 | Fold Change of metabolite disaccaride3 (platform GC, p-Value 0.000700744): −0.9977 | Fold Change of metabolite tms glutamine3 (platform GC, p-Value 0.003279434): −0.8935 | Fold Change of metabolite phenylalanine (platform GC, p-Value 0.010760299): −0.9797 | Fold Change of metabolite ornithine3 (platform GC, p-Value 0.011300115): −0.9853 | Fold Change of metabolite TMS mevalonic acid lactone (platform GC, p-Value 0.012983194): −0.9767 | Fold Change of metabolite malic acid (platform GC, p-Value 0.015444108): −0.963 | Fold Change of metabolite leucine (platform GC, p-Value 0.015876175): −0.9443 | Fold Change of metabolite glutamine (platform GC, p-Value 0.019324613): −0.9116 | Fold Change of metabolite sugar? (platform GC, p-Value 0.019518223): −0.933 | Fold Change of metabolite isoleucine (platform GC, p-Value 0.021030517): −0.9533 | Fold Change of metabolite aspartic acid (platform GC, p-Value 0.024172801): −0.9743 | Fold Change of metabolite tms tyrosine3 (platform GC, p-Value 0.029953667): −0.9473 | Fold Change of metabolite tms lysine4 (platform GC, p-Value 0.032217789): −0.9783 | Fold Change of metabolite glycanopyrose (platform GC, p-Value 0.041202857): −0.958 | Fold Change of metabolite alanine (platform GC, p-Value 0.054639399): −0.7773 | Fold Change of metabolite threonine3 (platform GC, p-Value 0.063199416): −0.8933 | Fold Change of metabolite threonine2 (platform GC, p-Value 0.073159868): −0.8553 | Fold Change of metabolite glycerol (platform GC, p-Value 0.089234962): −0.815 | Fold Change of metabolite ergosterol (platform GC, p-Value 0.114118055): 2.303 | Fold Change of metabolite fucosterol (platform GC, p-Value 0.186711806): −0.6553 | Fold Change of metabolite iso citric acid (platform GC, p-Value 0.233348939): −0.6183 | Fold Change of metabolite squalene (platform GC, p-Value 0.254158772): −0.5745 | Fold Change of metabolite oleic acid (platform GC, p-Value 0.325422554): −0.4593 | Fold Change of metabolite glycine (platform GC, p-Value 0.431923912): 0.8807 | Fold Change of metabolite lysine (platform GC, p-Value 0.488896519): −0.3925 | Fold Change of metabolite palmiteliadic acid (platform GC, p-Value 0.503020409): 0.515 | Fold Change of metabolite tms tyrosine2 (platform GC, p-Value 0.601581614): −0.3593 | Fold Change of metabolite octadecanoic acid (platform GC, p-Value 0.660192025): 0.21 | Fold Change of metabolite mevalonic acid lactone (platform GC, p-Value 0.690626296): −0.1276 | Fold Change of metabolite pyrimidine (platform GC, p-Value 0.744108261): −0.185 | Fold Change of metabolite tetradecanoic acid (platform GC, p-Value 0.793963653): 0.07967 | Fold Change of metabolite hexadecanoic acid (platform GC, p-Value 0.921125845): −0.2427 | Fold Change of metabolite phosphate (platform GC, p-Value 0.983733869): −0.007333 | Fold Change of metabolite campesterol (platform GC, p-Value 1): 0 | Fold Change of metabolite desmosterol (platform GC, p-Value 1): 0 | Fold Change of metabolite ornithine2 (platform GC, p-Value 1.48992E−05): −1 | Fold Change of metabolite asparagine (platform GC, p-Value 6.41E−06): −1 | Fold Change of metabolite disaccaride1 (platform GC, p-Value 7.54E−06): −1 | Fold Change of metabolite lanosterol (platform GC, p-Value 7.71E−06): −1 | Fold Change of metabolite kinetin (platform nLC (first kinetin line), p-Value 1): 0 | Fold Change of metabolite kinetin (platform nLC (second kinetin line), p-Value 1): 0 | Fold Change of metabolite cytidine (platform nLC, p-Value 0.000680198): −0.9986 | Fold Change of metabolite isocitric/citric/qu (platform nLC, p-Value 0.027544382): 2.549 | Fold Change of metabolite lactic acid (platform nLC, p-Value 0.077524891): −0.02583 | Fold Change of metabolite allantoin (platform nLC, p-Value 0.149169352): 3.97 | Fold Change of metabolite orotic acid (platform nLC, p-Value 0.186179266): 8380 | Fold Change of metabolite succinic (platform nLC, p-Value 0.193450596): 0.8663 | Fold Change of metabolite 3-indolylacetonitri (platform nLC, p-Value 0.197015297): −0.9998 | Fold Change of metabolite citrulline (platform nLC, p-Value 0.217809679): 1659 | Fold Change of metabolite 2-ketobutyric acid (platform nLC, p-Value 0.225631474): −0.9992 | Fold Change of metabolite sucrose (platform nLC, p-Value 0.225682636): 0.4493 | Fold Change of metabolite fumaric/3m2oxobutan (platform nLC, p-Value 0.238894937): 0.4423 | Fold Change of metabolite glucosamine6PO4 (platform nLC, p-Value 0.273438701): −0.9951 | Fold Change of metabolite gallic acid (platform nLC, p-Value 0.29960644): 0.1622 | Fold Change of metabolite arginine (platform nLC, p-Value 0.315413423): −0.4885 | Fold Change of metabolite biotin (platform nLC, p-Value 0.363209057): 1.077 | Fold Change of metabolite nopaline (platform nLC, p-Value 0.369522244): 0.3342 | Fold Change of metabolite hypoxanthine (platform nLC, p-Value 0.372039959): 0.1655 | Fold Change of metabolite tryptophan (platform nLC, p-Value 0.380816515): 1.142 | Fold Change of metabolite DLaminoadipic acid (platform nLC, p-Value 0.40985594): 1.411 | Fold Change of metabolite inostol/glucos/sorb (platform nLC, p-Value 0.41837757): −0.5905 | Fold Change of metabolite guanosine (platform nLC, p-Value 0.425021511): 1.131 | Fold Change of metabolite caffeic acid (platform nLC, p-Value 0.427037943): −0.5882 | Fold Change of metabolite ornithine (platform nLC, p-Value 0.473753211): 2.534 | Fold Change of metabolite malic acid (platform nLC, p-Value 0.497517178): 0.6212 | Fold Change of metabolite proline (platform nLC, p-Value 0.518220081): 0.4603 | Fold Change of metabolite 2-ketoglutaric (platform nLC, p-Value 0.622408732): 8.791 | Fold Change of metabolite alanine (platform nLC, p-Value 0.62524207): 0.1599 | Fold Change of metabolite sorbitol/mannitol (platform nLC, p-Value 0.68492695): 0.2162 | Fold Change of metabolite aspartic (platform nLC, p-Value 0.703732114): 0.2407 | Fold Change of metabolite pyridoxine (platform nLC, p-Value 0.708651225): −0.1294 | Fold Change of metabolite selenoDL-methionine (platform nLC, p-Value 0.711447529): 0.8515 | Fold Change of metabolite glutamic/acetylseri (platform nLC, p-Value 0.733962176): 0.1414 | Fold Change of metabolite asparagine (platform nLC, p-Value 0.758489047): 0.1511 | Fold Change of metabolite phenylalanine (platform nLC, p-Value 0.76165051): −0.1906 | Fold Change of metabolite leucine/isoleucine/ (platform nLC, p-Value 0.763305915): 0.1319 | Fold Change of metabolite serine (platform nLC, p-Value 0.766811518): 0.1091 | Fold Change of metabolite threonine/homoserin (platform nLC, p-Value 0.769444989): 0.1267 | Fold Change of metabolite allantoic acid (platform nLC, p-Value 0.777964345): −0.1456 | Fold Change of metabolite tetradecanoic acid (platform nLC, p-Value 0.782765706): −0.07723 | Fold Change of metabolite 4aminobutyrate/dimg (platform nLC, p-Value 0.820379809): −0.1983 | Fold Change of metabolite decanoic acid (platform nLC, p-Value 0.824169685): −0.08716 | Fold Change of metabolite glutamine/lysine (platform nLC, p-Value 0.835677767): 0.07919 | Fold Change of metabolite NacetylL-glutamate (platform nLC, p-Value 0.840704909): −0.1078 | Fold Change of metabolite menthol* (platform nLC, p-Value 0.852876357): −0.07013 | Fold Change of metabolite pipecolic acid (platform nLC, p-Value 0.871015411): 0.08112 | Fold Change of metabolite sugar-phosphate (platform nLC, p-Value 0.878141701): −0.1067 | Fold Change of metabolite oleic acid (platform nLC, p-Value 0.880270386): 0.689 | Fold Change of metabolite aconitic acid (platform nLC, p-Value 0.891314692): 0.5426 | Fold Change of metabolite palmitic acid (platform nLC, p-Value 0.90280612): 0.3979 | Fold Change of metabolite nicotinic acid (platform nLC, p-Value 0.972130606): 0.3131 | Fold Change of metabolite lauric acid (platform nLC, p-Value 0.972245476): 0.1225 | Fold Change of metabolite 4-methylcatechol (platform nLC, p-Value 1): 0
